# In PMC9589981, “High-Resolution Epitope Mapping and Affinity Binding Analysis Comparing a New Anti-Human LAG3 Rabbit Antibody Clone to the Commonly Used Mouse 17B4 Clone” (Antibodies, 2022):
# Test system: mouse 17B4 antibody (binding to LAG3 from HH cell lysate)
# Experiment: ACE (automated capillary electrophoresis) peptide inhibition assay, 17B4
# Conditions: result in words, peptide at 5000 nM and 500 nM
# Description: For each assay run, HH cell lysate was mixed with 0.1× WES sample buffer reagent, and reconstituted WES 5× Fluorescent Mix reagent followed by denaturation at 95 °C for 3 min and then held on ice followed until use. Denatured sample was added to each of the designated wells of the separation module sampling plate. Dilutions of the stock rabbit SP464 and mouse 17B4 monoclonal antibodies were made to the desired concentrations using the WES detection module Antibody Dilution Buffer 2 reagent. Diluted antibody solutions were added to the designated wells of the separation module sampling plate. The remaining WES assay reagents were finally added to the plate and then processed in the WES instrument using the default running and detection parameters.
# HH cell lysate samples were prepared and used as above for antibody titration assays. Rabbit SP464 and mouse 17B4 antibodies were diluted to 4 µg/mL in the WES detection module Antibody Dilution Buffer 2 reagent. The antibody solutions were then diluted 1:1 (vol/vol) with varying concentrations of peptide, or diluent as a no peptide control, for 1 h at RT, and 10 µL of each antibody/peptide solution was added to the designated wells of the separation module sampling plate. Samples were run in duplicates or triplicates. Plates were then processed in the WES instrument using default running and detection parameters.
sequence,measurement,setting,value
PAAAPGHPLA [central ten amino acid fragment within the N-terminal 15 amino acids],inhibition of 17B4 binding by immunogen fragment (ACE),,inhibited binding
same,inhibition of 17B4 binding by immunogen fragment (ACE),listed as center sub-domain fragment,complete inhibition
